{"source": "patent US20220062310A1", "about": "“[…] PATIENTS WITH OBSESSIVE-COMPULSIVE DISORDER” (YALE UNIVERSITY, priority 2020, published 2022)", "key": {"[1]": {"tested_on": "patients with treatment resistant OCD", "test": "Same OCD study: depression scores (Montgomery-Asberg Depression Rating Scale)", "format": "in vivo, human", "details": "single dose 0.25 mg/kg; scores not high in most subjects", "description": "(§1) Research Materials and Measures: Participants can complete self-report and clinician-administered measures of OCD symptoms, anxiety, depression, quality of life, and spirituality at baseline, prior to psilocybin session, and during all designated study visits. […]"}, "[2]": {"tested_on": "patients with treatment resistant OCD", "test": "Same OCD study: state and trait anxiety scores (STAI)", "format": "in vivo, human", "details": "single dose 0.25 mg/kg", "description": "as §1"}, "[3]": {"tested_on": "serotonin 5-hydroxytryptamine (5-HT) receptors", "details": "after conversion in the body to psilocin; most affinity to 5-HT2A and 5-HT2C, lesser to 5-HT1A; cited from earlier work"}, "OCD symptoms": {"tested_on": "OCD symptoms", "details": "low doses (2 mg-4 mg); cited from earlier work"}, "rats": {"tested_on": "rats", "details": "cited from earlier work"}, "mice": {"tested_on": "mice", "details": "cited from earlier work"}, "humans [4]": {"tested_on": "humans", "details": "pure psilocybin; cited from earlier work"}, "humans [5]": {"tested_on": "humans", "details": "oral doses of up to 0.6 mg/kg; cited from earlier work"}, "study participants": {"tested_on": "study participants", "details": "cited from earlier work"}, "[6]": {"details": "non-medical use as mushrooms; cited from earlier work"}, "humans [7]": {"tested_on": "humans", "test": "Estimated lethal dose of pure psilocybin in humans", "details": "0.25 mg/kg versus LD50 in nonhuman animals and in humans"}, "[8]": {"tested_on": "patients with treatment resistant OCD", "test": "Double-blind, placebo controlled study of psilocybin in OCD (NCT03356483): acute-YBOCS / YBOCS"}}, "data": [{"compound": "CN(C)CCc1c[nH]c2cccc(OP(=O)(O)O)c12", "note": "[psilocybin, 3-(2-dimethylaminoethyl)-1H-indol-4-yl] dihydrogen phosphate]", "values": [{"measurement": "depression scores (MADRS, FIG. 5)", "setting": "[1]", "value": "improved after psilocybin in several subjects"}, {"measurement": "state anxiety scores (FIG. 6)", "setting": "[2]", "value": "improved in those subjects whose OCD symptoms also improved"}, {"measurement": "action at 5-HT receptors", "setting": "[3]", "value": "partial agonist"}, {"measurement": "acute effect on OCD symptoms", "setting": "OCD symptoms", "value": "acutely attenuated OCD symptoms even after low doses"}, {"measurement": "LD50", "setting": "rats", "value": 285, "unit": "mg/kg"}, {"measurement": "LD50", "setting": "mice", "value": 285, "unit": "mg/kg"}, {"measurement": "best estimate of a lethal dose", "setting": "humans [4]", "value": "about 19 grams"}, {"measurement": "serious adverse events", "setting": "humans [5]", "value": "no serious adverse events"}, {"measurement": "reactions requiring pharmacological intervention", "setting": "study participants; 30 mg psilocybin", "value": "no reactions requiring pharmacological intervention occurred"}, {"measurement": "rates of prolonged psychiatric symptoms of any kind following exposure", "setting": "study participants; healthy study participants", "value": "0.08-0.09%"}, {"measurement": "participants with distress sufficient to contact the researchers", "setting": "study participants; meta-analysis, 110 research participants (1 participant)", "value": 0.9, "unit": "%"}, {"measurement": "participants who endorsed negative changes in psychological well-being", "setting": "study participants; meta-analysis, 110 research participants", "value": 7, "unit": "participants"}, {"measurement": "duration of common acute side effects", "setting": "study participants; most effects", "value": "last no longer than six hours"}, {"measurement": "adverse events associated with drug administration", "setting": "study participants; over 2000 participants under controlled conditions", "value": "no reports of the occurrence of a significance of adverse events"}, {"measurement": "subjects with persistent perceptual symptoms associated with HPPD", "setting": "study participants; review of studies 1999 to 2008, mild, brief, resolved within three days", "value": "one subject (out of 110)"}, {"measurement": "share of drug-related emergency department visits that mention it", "setting": "[6]", "value": 0.1, "unit": "%"}, {"measurement": "full study dose relative to LD50", "setting": "humans [7]", "value": "over 100 times smaller"}, {"measurement": "improvement in OCD symptoms after psilocybin in subjects who had previously received placebo (FIG. 4)", "setting": "[8]; open-label, one of three subjects, 12 weeks follow-up", "value": "robust and lasting improvement in symptoms"}, {"measurement": "persistence of the improvement in symptoms", "setting": "[8]; single dose 0.25 mg/kg, the three improved subjects", "value": 12, "unit": "weeks"}, {"measurement": "improvement in OCD symptoms (YBOCS, FIG. 2 and 3)", "setting": "[8]; single dose 0.25 mg/kg, three of the subjects receiving psilocybin", "value": "robust improvement in symptoms"}, {"measurement": "acute-YBOCS score (M) at 48-hours after drug administration", "setting": "[8]; single oral dose 0.25 mg/kg, N=5, baseline M=25.5 (18 to 29), SD=11.52, t(3)=2.71, p=0.036", "value": 15}]}]}
